In patent publication US8242117B2, “5-membered heterocycle-based p38 kinase inhibitors” (Novartis AG, priority 2003, dated 2012):

Each molecule was assayed against T1, p38α kinase (Homo sapiens, UniProt Q16539) (assay: p38α assay (ADP release coupled to NADH oxidation)). Settings: 60 min preincubation, 0.15 mM ATP, 20 nM p38α kinase.
T1 construct: purchased Upstate
T1 sequence (Q16539 whole entry): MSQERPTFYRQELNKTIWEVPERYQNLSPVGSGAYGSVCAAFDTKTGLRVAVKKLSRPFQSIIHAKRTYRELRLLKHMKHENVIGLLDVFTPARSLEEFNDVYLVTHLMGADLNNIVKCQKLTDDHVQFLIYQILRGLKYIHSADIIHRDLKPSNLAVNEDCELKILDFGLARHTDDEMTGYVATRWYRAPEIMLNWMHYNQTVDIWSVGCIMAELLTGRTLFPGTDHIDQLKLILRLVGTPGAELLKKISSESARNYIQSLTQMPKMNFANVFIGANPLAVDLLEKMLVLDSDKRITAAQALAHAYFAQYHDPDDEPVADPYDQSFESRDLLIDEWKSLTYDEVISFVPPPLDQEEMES
Format: biochemical
Protocol: cDNAs of human p38α and β were cloned by PCR. The α and β cDNAs were subcloned into DEST2 plasmid (Gateway, InVitrogen). His6-p38 fusion protein was expressed in E. coli and purified from bacterial lysates by affinity chromatography using Ni^+2-NTA-agarose. His6-p38 protein was activated by incubating with constitutively active MKK6. Active p38 was separated from MKK6 by affinity chromatography. Constitutively active MKK6 was generated in a manner similar to Raingeaud et al. [Mol. Cell. Biol., 1247-1255 (1996)].
The p38α assay employed is based on measurement of ADP released in the reaction of interest through NADH oxidation obtained by coupling with pyruvate kinase and lactate dehydrogenase reactions. The assays were performed in 384-well UV-plates. The final volume was 25 μL prepared from the addition of 2.5 μL compound dissolved in 10% DMSO, 17.5 μL of assay buffer and 5 μL of ATP. Assay buffer contains the following reagents to give final concentration in the assay: 25 mM HEPES, 20 mM 2-glycerophosphate, pH 7.6, 10 mM MgCl2, 0.1 mM sodium orthovanadate, 0.5 mM phosphoenolpyruvate, 0.12 mM NADH, 3.1 mg/ml LDH, 6.67 mg/ml pyruvate kinase, 0.25 mM peptide substrate, 2 mM DTT, 0.005% Tween 80 and 20 nM p38α kinase from Upstate. Test compounds are preincubated zith p38α kinase for 60 min and the reaction started by addition of ATP to 0.15 mM final concentration. Reaction rates were measured at 340 nm using SpectraMax plate-reading spectrophotometer for 10 min at 37° C. Inhibition data were analyzed by non-linear least-squares regression using SigmaPlot.
Molecule CONC(=O)c1ccc(C)c(-n2ncc(C(=O)c3cccc(I)c3)c2N)c1 [Example 1, 3-[5-Amino-4-(3-iodo-benzoyl)-pyrazol-1-yl]-N-methoxy-4-methyl-benzamide] has an IC50 of under 1000 nM.
CONC(=O)c1ccc(C)c(-n2ncc(C(=O)c3ccccc3)c2N)c1 [Example 2, 3-(5-Amino-4-benzoyl-pyrazol-1-yl)-N-methoxy-4-methyl-benzamide] gave an IC50 of under 1000 nM.
Work on Cc1ccc(C(=O)O)cc1-n1ncc(C(=O)c2ccccc2)c1N [Example 3, 3-(5-amino-4-benzoyl-pyrazol-1-yl)-4-methyl-benzoic acid] yielded an IC50 of 1000 to 10000 nM.
Cc1ccc(C(=O)NC2CC2)cc1-n1ncc(C(=O)c2ccccc2)c1N [Example 4, 3-(5-amino-4-benzoyl-pyrazol-1-yl)-N-cyclopropyl-4-methyl-benzamide] gave an IC50 of under 1000 nM.
For Cc1ccc(C(=O)O)cc1-n1ncc(C(=O)c2cccc(I)c2)c1N [Example 5, 3-[5-amino-4-(3-iodo-benzoyl)-pyrazol-1-yl]-4-methyl-benzoic acid], the IC50 was 1000 to 10000 nM.
With Cc1ccc(C(=O)NC2CC2)cc1-n1ncc(C(=O)c2cccc(I)c2)c1N [Example 6, 3-[5-amino-4-(3-iodo-benzoyl)-pyrazol-1-yl]-N-cyclopropyl-4-methyl-benzamide] the IC50 was under 1000 nM.
With Cc1ccc(-c2nnc[nH]2)cc1-n1ncc(C(=O)c2ccccc2)c1N [Example 7, {5-amino-1-[2-methyl-5-(4H-[1,2,4]triazol-3-yl)-phenyl]-1H-pyrazol-4-yl}-phenyl-methanone] the IC50 was under 1000 nM.
Cc1ccc(C(=O)NC2CC2)cc1-n1ncc(C(=O)c2cccc(C3OCCO3)c2)c1N [Example 8, 3-[5-amino-4-(3-[1,3]dioxolan-2-yl-benzoyl)-pyrazol-1-yl]-N-cyclopropyl-4-methyl-benzamide] showed an IC50 of under 1000 nM.
With Cc1ccc(C(=O)NC2CC2)cc1-n1ncc(C(=O)c2cccc(C=O)c2)c1N [Example 9, 3-[5-amino-4-(3-formyl-benzoyl)-pyrazol-1-yl]-N-cyclopropyl-4-methyl-benzamide] the IC50 was under 1000 nM.
Cc1ccc(C(=O)NC2CC2)cc1-n1ncc(C(=O)c2cccc(CO)c2)c1N [Example 10, 3-[5-amino-4-(3-hydroxymethyl-benzoyl)-pyrazol-1-yl]-N-cyclopropyl-4-methyl-benzamide] gave an IC50 of under 1000 nM.
With Cc1ccc(C(=O)NC2CC2)cc1-n1cnc(C(=O)C2CCCCC2)c1N [Example 18, 3-(5-Amino-4-cyclohexanecarbonyl-imidazol-1-yl)-N-cyclopropyl-4-methyl-benzamide] the IC50 was under 1000 nM.
Cc1ccc(C(=O)NC2CC2)cc1-n1cnc(C(=O)C2CCOCC2)c1N [Example 29, 3-[5-Amino-4-(tetrahydro-pyran-4-carbonyl)-imidazol-1-yl]-N-cyclopropyl-4-methyl-benzamide] showed an IC50 of under 1000 nM.
COc1nn(-c2cc(C(=O)NC3CC3)ccc2C)c(N)c1C(=O)c1ccccc1 [Example 30, 3-(5-amino-4-benzoyl-3-methoxy-pyrazol-1-yl)-N-cyclopropyl-4-methyl-benzamide] gave an IC50 of under 1000 nM.
Cc1ccc(C(=O)NC2CC2)cc1-n1nc(OCCOCc2ccccc2)c(C(=O)c2ccccc2)c1N [Example 33, 3-[5-amino-4-benzoyl-3-(2-benzyloxy-ethoxy)-pyrazol-1-yl]-N-cyclopropyl-4-methyl-benzamide] showed an IC50 of under 1000 nM.
Cc1ccc(C(=O)NC2CC2)cc1-n1nc(OC2CCN(C(=O)OC(C)(C)C)CC2)c(C(=O)c2ccccc2)c1N [Example 34, 4-[5-amino-4-benzoyl-1-(5-cyclopropylcarbamoyl-2-methyl-phenyl)-1H-pyrazol-3-yloxy]-piperidine-1-carboxylic acid tert-butyl ester] showed an IC50 of under 1000 nM.
Work on CCOC(=O)c1cnn(-c2cc(C(=O)NC3CC3)ccc2C)c1N [Example 48, 5-Amino-1-(5-cyclopropylcarbamoyl-2-methyl-phenyl)-1H-pyrazole-4-carboxylic acid ethyl ester] yielded an IC50 of under 1000 nM.
CCOC(=O)c1c(C)nn(-c2cc(C(=O)NC3CC3)ccc2C)c1N [Example 49, 5-Amino-1-(5-cyclopropylcarbamoyl-2-methyl-phenyl)-3-methyl-1H-pyrazole-4-carboxylic acid ethyl ester] was tested, and the IC50 was under 1000 nM.
CCOC(=O)c1c(OCC(=O)NCc2cccc(Cl)c2)nn(-c2cc(C(=O)NC3CC3)ccc2C)c1N [Example 50, 5-Amino-3-[(3-chloro-benzylcarbamoyl)-methoxy]-1-(5-cyclopropylcarbamoyl-2-methyl-phenyl)-1H-pyrazole-4-carboxylic acid ethyl ester] showed an IC50 of under 1000 nM.
For Cc1ccc(C(=O)NC2CC2)cc1-n1ncc(C(=O)c2cccc(C#N)c2)c1N [Example 52, 3-[5-Amino-4-(3-cyanobenzoyl)-pyrazol-1-yl]-N-cyclopropyl-4-methylbenzamide], the IC50 was under 1000 nM.
Molecule Cc1ccc(C(=O)NC2CC2)cc1-n1ncc(C(=O)c2cccc(-c3nnco3)c2)c1N [Example 53, 3-[5-Amino-4-(3-[1,3,4]oxadiazol-2-yl-benzoyl)-pyrazol-1-yl]-N-cyclopropyl-4-methylbenzamide] has an IC50 of under 1000 nM.
Molecule Cc1ccc(C(=O)NC2CC2)cc1-n1cnc(C(=O)c2ccccn2)c1N [Example 76, 3-[5-Amino-4-(pyridine-2-carbonyl)-imidazol-1-yl]-N-cyclopropyl-4-methyl-benzamide] has an IC50 of under 1000 nM.
With Cc1ccc(C(=O)NC2CC2)cc1-n1cnc(C(=O)c2ccc3c(c2)OCO3)c1N [Example 87, 3-[5-Amino-4-(benzo[1,3]dioxole-5-carbonyl)-imidazol-1-yl]-N-cyclopropyl-4-methyl-benzamide] the IC50 was under 1000 nM.
Cc1ccc(C(=O)NC2CC2)cc1-n1ncc(C(=O)NC2CCCCC2C)c1N (stereo not shown) [Example 128, 5-Amino-1-(5-cyclopropylcarbamoyl-2-methyl-phenyl)-1H-pyrazole-4-carboxylic acid (2-methyl-cyclohexyl)-amide] was tested, and the IC50 was under 1000 nM.
With Cc1ccc(C(=O)NC2CC2)cc1-n1ncc(C(=O)NC2CCc3ccccc32)c1N (stereo not shown) [Example 135, 5-Amino-1-(5-cyclopropylcarbamoyl-2-methyl-phenyl)-1H-pyrazole-4-carboxylic acid indan-1-ylamide] the IC50 was under 1000 nM.
With Cc1ccc(C(=O)NC2CC2)cc1-n1ncc(C(=O)c2cccc(OCC(O)CO)c2)c1N (stereo not shown) [Example 171, 3-{5-Amino-4-[3-(2,3-dihydroxy-propoxy)-benzoyl]-pyrazol-1-yl}-N-cyclopropyl-4-methylbenzamide] the IC50 was under 1000 nM.
